In the assay the target is T1, eIF4A1 (Homo sapiens, UniProt P60842).
T1 construct: recombinant eIF4A1 from pET19bm, 10-histidine tract at the N-terminal with Prescission Protease site, expressed in E. coli Rosetta Star
Briefly: fluorescence quenching of purified recombinant eIF4A ([…] auraptene). In kind it is binding.

T1 sequence (P60842 2-406): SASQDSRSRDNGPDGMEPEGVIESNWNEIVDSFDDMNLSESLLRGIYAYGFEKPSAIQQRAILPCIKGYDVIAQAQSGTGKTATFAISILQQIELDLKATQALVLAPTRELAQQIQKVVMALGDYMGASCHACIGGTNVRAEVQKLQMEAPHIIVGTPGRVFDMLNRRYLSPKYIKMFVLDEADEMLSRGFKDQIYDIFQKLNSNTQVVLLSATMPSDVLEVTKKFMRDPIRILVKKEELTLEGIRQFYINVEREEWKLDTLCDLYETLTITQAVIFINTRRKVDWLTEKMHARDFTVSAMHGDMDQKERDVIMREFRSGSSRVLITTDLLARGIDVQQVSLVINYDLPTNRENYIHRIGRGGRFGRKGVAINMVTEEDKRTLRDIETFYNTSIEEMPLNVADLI

`CC(C)=CCC/C(C)=C/COc1ccc2ccc(=O)oc2c1` [Aur, auraptene]: the “fluorescence quenching of purified recombinant eIF4A (50 and 100 μM auraptene)” value is listed as “a reduction in the emission intensity was observed, resulting from a quenching phenomenon, suggesting that auraptene binds with the eIF4A”.

The values above are taken from publication PMC11435248, “Auraptene Boosts the Efficacy of the Tamoxifen Metabolites Endoxifen and 4-OH-Tamoxifen in a Chemoresistant ER+ Breast Cancer Model” (Pharmaceutics, 2024).
